The values below come from patent publication US20220089575A1, “FARNESOID X RECEPTOR AGONISTS AND USES THEREOF” (Metacrine, Inc., priority 2017, published 2022).

The term EC50 denotes the midpoint of the concentration-response curve. Read a high EC50 as lower potency in that assay.

In this test the target is T1, hFXR (Homo sapiens, UniProt Q96RI1).
T1 construct: expressed in transfected cells; host or cells: CV-1 cells
T1 sequence (Q96RI1 1-486): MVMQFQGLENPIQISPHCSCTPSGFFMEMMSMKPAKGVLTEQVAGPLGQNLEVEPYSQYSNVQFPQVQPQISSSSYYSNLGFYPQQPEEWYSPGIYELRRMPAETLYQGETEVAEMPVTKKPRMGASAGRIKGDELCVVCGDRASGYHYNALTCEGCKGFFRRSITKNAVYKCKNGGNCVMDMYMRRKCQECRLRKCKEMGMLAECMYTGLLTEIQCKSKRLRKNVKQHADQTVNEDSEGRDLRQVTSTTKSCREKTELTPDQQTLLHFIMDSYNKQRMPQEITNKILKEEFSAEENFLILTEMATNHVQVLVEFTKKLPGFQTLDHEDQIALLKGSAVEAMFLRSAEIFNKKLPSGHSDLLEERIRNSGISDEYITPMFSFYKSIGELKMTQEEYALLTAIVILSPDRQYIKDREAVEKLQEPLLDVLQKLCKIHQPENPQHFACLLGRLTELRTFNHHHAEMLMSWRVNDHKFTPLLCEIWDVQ
T1 sequence (P19793 1-462 partner): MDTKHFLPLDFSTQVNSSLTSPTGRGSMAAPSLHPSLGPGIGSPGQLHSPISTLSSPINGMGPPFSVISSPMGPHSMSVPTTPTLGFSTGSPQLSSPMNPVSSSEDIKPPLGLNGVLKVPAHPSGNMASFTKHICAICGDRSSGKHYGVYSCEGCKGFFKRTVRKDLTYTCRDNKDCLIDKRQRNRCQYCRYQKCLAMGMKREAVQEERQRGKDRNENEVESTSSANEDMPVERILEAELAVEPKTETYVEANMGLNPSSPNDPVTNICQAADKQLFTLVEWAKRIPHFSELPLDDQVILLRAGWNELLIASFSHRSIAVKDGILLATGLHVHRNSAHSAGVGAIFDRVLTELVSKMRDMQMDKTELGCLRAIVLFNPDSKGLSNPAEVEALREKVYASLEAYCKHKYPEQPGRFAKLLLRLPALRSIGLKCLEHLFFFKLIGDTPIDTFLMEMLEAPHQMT
As to the kind of experiment: In Vitro FXR Assay (TK): TK-ECRE-luc reporter in transfected CV-1 cells. The test is classed as cell-based. The note with it: 18 hrs, luminescence, maximum efficacy of <25% of the Fexarmine control classified as '+'. The gist of the method:
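Transiently transfected monkey CV-1 cells (hFXR, hRXR, TK-ECRE-luciferase, YFP control plasmid), held in stripped-serum DMEM, received compound dilutions from DMSO for 18 h at 37 °C. Activity was taken from luminescence of the cell lysates.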
As for `COc1ccc([C@H]2CC[C@H](CN(c3cccc(-c4cnc(C5CC5)s4)c3)C(=O)[C@H]3CC[C@H](NC(=O)CNS(C)(=O)=O)CC3)CC2)cc1C` [Compound 30.06, trans-N-(3-(2-Cyclopropylthiazol-5-yl)phenyl)-N-((trans-4-(4-methoxy-3-methylphenyl)cyclohexyl)methyl)-4-(2-(methylsulfonamido)acetamido) cyclohexanecarboxamide], the concentration giving a half-maximal response (EC50) is not above 250 nM.
For `COC(=O)NCC(=O)N[C@H]1CC[C@H](C(=O)N(C[C@H]2CC[C@H](c3ccc(OC)c(C)c3)CC2)c2cccc(-c3cnn(C4CC4)c3)c2)CC1` [Compound 31, Methyl (2-((trans-4-((03-(1-cyclopropyl-1H-pyrazol-4-yl)phenyl)((trans-4-(4-methoxy-3-methylphenyl)cyclohexyl)methyl)carbamoyl)cyclohexyl)amino)-2-oxoethyl)carbamate] the value was not above 250 nM; for `COc1ccc([C@H]2CC[C@H](CN(c3cccc(-c4cnn(C5CC5)c4)c3)C(=O)[C@H]3CC[C@H](NC(=O)CNC(C)=O)CC3)CC2)cc1C` [Compound 31.01, trans-4-(2-Acetamidoacetamido)-N-(3-(1-cyclopropyl-1H-pyrazol-4-yl)phenyl)-N-((trans-4-(4-methoxy-3-methylphenyl)cyclohexyl)methyl)cyclohexanecarboxamide], not below 1000 nM.
To `COc1ccc([C@H]2CC[C@H](CN(c3cccc(-c4cnn(C5CC5)c4)c3)C(=O)[C@H]3CC[C@H](NC(=O)CS(C)(=O)=O)CC3)CC2)cc1C` [Compound 31.02] belongs 250 to 1000 nM; to `COc1ccc([C@H]2CC[C@H](CN(c3cccc(-c4cnn(C5CC5)c4)c3)C(=O)[C@H]3CC[C@H](NC(=O)CNS(C)(=O)=O)CC3)CC2)cc1C` [Compound 31.03, trans-N-(3-(1-Cyclopropyl-1H-pyrazol-4-yl)phenyl)-N-((trans-4-(4-methoxy-3-methylphenyl)cyclohexyl)methyl)-4-(2-(methylsulfonamido)acetamido) cyclohexane carboxamide], not below 1000 nM; to `COc1ccc([C@H]2CC[C@H](CN(c3cccc(-c4cnn(C5CC5)c4)c3)C(=O)[C@H]3CC[C@H](NC(=O)C[S+](C)[O-])CC3)CC2)cc1C` (stereo partly drawn) [Compound 31.04, trans-N-(3-(1-Cyclopropyl-1H-pyrazol-4-yl)phenyl)-N-((trans-4-(4-methoxy-3-methylphenyl)cyclohexyl)methyl)-4-(2-(methylsulfinyl)acetamido) cyclohexanecarboxamide], 250 to 1000 nM.
`COC(=O)NCC(=O)N[C@H]1CC[C@H](C(=O)N(C[C@H]2CC[C@H](c3ccc(OC)c(C)c3)CC2)c2cccc(-c3cnc(C4CC4)s3)c2)CC1` [Compound 31.05, Methyl (2-((trans-4-((3-(2-cyclopropylthiazol-5-yl)phenyl)((trans-4-(4-methoxy-3-methylphenyl)cyclohexyl)methyl)carbamoyl)cyclohexyl)amino)-2-oxoethyl)carbamate]: the EC50 is not above 250 nM.
Take `COc1ccc([C@H]2CC[C@H](CN(c3cccc(-c4cnc(C5CC5)s4)c3)C(=O)[C@H]3CC[C@H](NC(=O)CN(C)C)CC3)CC2)cc1C` [Compound 31.06, trans-N-(3-(2-Cyclopropylthiazol-5-yl)phenyl)-4-(2-(dimethylamino)acetamido)-N-((trans-4-(4-methoxy-3-methylphenyl)cyclohexyl)methyl)cyclohexanecarboxamide]: the concentration for a half-maximal effect (EC50) is not above 250 nM.
Consider `COc1ccc([C@H]2CC[C@H](CN(c3cccc(-c4cnc(C5CC5)s4)c3)C(=O)[C@H]3CC[C@H](NC(=O)CN)CC3)CC2)cc1C` [Compound 31.07, trans-4-(2-Aminoacetamido)-N-(3-(2-cyclopropylthiazol-5-yl)phenyl)-N-((trans-4-(4-methoxy-3-methylphenyl)cyclohexyl)methyl) cyclohexanecarboxamide], for which the EC50 was 250 to 1000 nM.
To `CNCC(=O)N[C@H]1CC[C@H](C(=O)N(C[C@H]2CC[C@H](c3ccc(OC)c(C)c3)CC2)c2cccc(-c3cnc(C4CC4)s3)c2)CC1` [Compound 31.08, trans-N-(3-(2-Cyclopropylthiazol-5-yl)phenyl)-N-((trans-4-(4-methoxy-3-methylphenyl)cyclohexyl)methyl)-4-(2-(methylamino)acetamido) cyclohexanecarboxamide] belongs not above 250 nM; to `COc1ccc([C@H]2CC[C@H](CN(c3cccc(-c4cnc(C5CC5)s4)c3)C(=O)[C@H]3CC[C@H](NC(=O)CNC(C)=O)CC3)CC2)cc1C` [Compound 31.09, trans-4-(2-Acetamidoacetamido)-N-(3-(2-cyclopropylthiazol-5-yl)phenyl)-N-((trans-4-(4-methoxy-3-methylphenyl)cyclohexyl)methyl)cyclohexanecarboxamide], not above 250 nM; to `COc1ccc([C@H]2CC[C@H](CN(c3cccc(-c4cnc(C5CC5)s4)c3)C(=O)[C@H]3CC[C@H](NC(=O)CSC)CC3)CC2)cc1C` [Compound 31.10, trans-N-(3-(2-Cyclopropylthiazol-5-yl)phenyl)-N-((trans-4-(4-methoxy-3-methylphenyl)cyclohexyl)methyl)-4-(2-(methylthio)acetamido) cyclohexanecarboxamide], not above 250 nM.
`COc1ccc([C@H]2CC[C@H](CN(c3cccc(-c4cnc(C5CC5)s4)c3)C(=O)[C@H]3CC[C@H](NC(=O)C[S+](C)[O-])CC3)CC2)cc1C` (stereo partly drawn) [Compound 31.11, trans-N-(3-(2-Cyclopropylthiazol-5-yl)phenyl)-N-((trans-4-(4-methoxy-3-methylphenyl)cyclohexyl)methyl)-4-(2-(methylsulfinyl)acetamido) cyclohexanecarboxamide] gave an EC50 not above 250 nM.
`COc1ccc([C@H]2CC[C@H](CN(c3cccc(-c4cnc(C5CC5)s4)c3)C(=O)[C@H]3CC[C@H](NC(=O)CS(C)(=O)=O)CC3)CC2)cc1C` [Compound 31.12, trans-N-(3-(2-Cyclopropylthiazol-5-yl)phenyl)-N-((trans-4-(4-methoxy-3-methylphenyl)cyclohexyl)methyl)-4-(2-(methylsulfonyl)acetamido) cyclohexanecarboxamide] displayed an EC50 not above 250 nM.
`COc1ccc([C@H]2CC[C@H](CN(c3cccc(-c4cnc(C5CC5)s4)c3)C(=O)[C@H]3CC[C@H](NC(=O)CC[S+](C)[O-])CC3)CC2)cc1C` (stereo partly drawn) [Compound 31.13, trans-N-(3-(2-Cyclopropylthiazol-5-yl)phenyl)-N-((trans-4-(4-methoxy-3-methylphenyl)cyclohexyl)methyl)-4-(3-(methylsulfinyl)propanamido) cyclohexanecarboxamide] came in with a half-maximal effective concentration (EC50) of 250 to 1000 nM.
For `COc1ccc([C@H]2CC[C@H](CN(c3cccc(-c4cnc(C5CC5)s4)c3)C(=O)[C@H]3CC[C@H](NC(=O)CCS(C)(=O)=O)CC3)CC2)cc1C` [Compound 31.14, trans-N-(3-(2-Cyclopropylthiazol-5-yl)phenyl)-N-((trans-4-(4-methoxy-3-methylphenyl)cyclohexyl)methyl)-4-(3-(methylsulfonyl)propanamido) cyclohexanecarboxamide], the EC50 was not above 250 nM.
`COc1ccc([C@H]2CC[C@H](CN(c3cccc(-c4cnc(C5CC5)s4)c3)C(=O)[C@H]3CC[C@H](NC(=O)Cc4c[nH]cn4)CC3)CC2)cc1C` [Compound 31.15, trans-4-(2-(1H-Imidazol-4-yl)acetamido)-N-(3-(2-cyclopropylthiazol-5-yl)phenyl)-N-((trans-4-(4-methoxy-3-methylphenyl)cyclohexyl)methyl) cyclohexanecarboxamide] displayed an EC50 not above 250 nM.
To `COc1ccc([C@H]2CC[C@H](CN(c3cccc(-c4cnn(C5CC5)c4)c3)C(=O)[C@H]3CC[C@H](NC(=O)COCCCO)CC3)CC2)cc1C` [Compound 32, trans-N-(3-(1-Cyclopropyl-1H-pyrazol-4-yl)phenyl)-4-(2-(3-hydroxypropoxy)acetamido)-N-((trans-4-(4-methoxy-3-methylphenyl)cyclohexyl)methyl)cyclohexanecarboxamide] belongs not above 250 nM.
Turning to `COc1ccc([C@H]2CC[C@H](CN(c3cccc(-c4cnn(C5CC5)c4)c3)C(=O)[C@H]3CC[C@H](NC(=O)COCCO)CC3)CC2)cc1C` [Compound 32.01, trans-N-(3-(1-Cyclopropyl-1H-pyrazol-4-yl)phenyl)-4-(2-(2-hydroxyethoxy)acetamido)-N-((trans-4-(4-methoxy-3-methylphenyl)cyclohexyl)methyl)cyclohexanecarboxamide], the EC50 was not above 250 nM.
